Assays:
[1] = tested on: embryos; experiment: Group embryo culture in 20% oxygen, blastocyst cell numbers by differential staining; assay type: cell-based, mice; details: 20% O2; for optimal dose (dose that resulted in significantly higher cell numbers): single compound
Procedure: F1 virgin hybrid female mice (C57BL/6×CBA) at 3-4 weeks old were intraperitoneally injected with 5 IU of pregnant mare's serum gonadotrophin. 48 hours later 5 IU of human chorulon gonadotrophin was administered and the female mice mated with F1 male mice >12 weeks old. Successful mating was confirmed by the presence of a vaginal mucus plug the following morning. Pronucleate oocytes were collected 22 hours after hCG injection, in pre-warmed handling medium (G-MOPS) supplemented with 5 mg/ml human sera albumin. Cumulus cells were denuded from the oocytes with GMOPS containing 300 IU/ml hyaluronidase. All embryos were washed twice in G-MOPS media and once in G-1™ medium prior to allocation for culture. Animals were housed in 12 hour light-day photoperiod with food and water available ad libitum.
Embryos were cultured in groups of 10 in 20 ul drops of media under paraffin oil in 6% CO2 in air (atmospheric oxygen ˜20%) or at 6% CO2 5% oxygen at 37° C. in a humidified multi gas incubator (Sanyo MCOK-5M[RC], Japan). Embryos were cultured in G-1™ medium (G-1™ with HSA-Solution™, Vitrolife) for 48 hours and then for a further 48 hours in G-2™ medium (G-2™ with HSA-Solution™, Vitrolife). […] All cultures were performed in 35 mm petri dishes (Falcon, BD Biosciences).
Differential staining of embryos was performed by techniques commonly known in the art to determine the allocation of cells to the inner cell mass (ICM) and trophectoderm (TE) on day 5 (e.g. in the blastocyst). Briefly, after zona removal using pronase, embryos were treated with a complement reaction which labels the in TE nuclei with propidium iodide and leaves the ICM intact and unlabelled. Following bisbenzimide treatment, all nuclei were stained. Embryos were whole-mounted in glycerol and imaged using an inverted fluorescence microscope (Nikon Eclipse TS100) fitted with a digital camera (Nikon digital sight DS-Fi1) and nuclei counted using imaging software ImageJ.
Embryos cultured in control groups were grown in G-™1 and G-2™ medium supplemented with HSA 5 mg/ml (HSA, Vitrolife). Embryos in treatment groups were similarly cultured with Acetyl Carnitine, Acetyl Cysteine or α-Lipoic acid Sigma Aldrich, USA) supplemented in the G-1™ and G-2™ medium at doses of 1, 10 and 100 μM and supplemented with HSA as the control group. […] The “total mean” means the average total number of cells in the embryo (including inner cell mass and trophectoderm) at day 5.
Embryos cultured in control groups were grown in G-1™ and G-2™ medium supplemented with HSA-Solution™ 5 mg/ml. Embryos in treatment groups were similarly cultured with 10 μM Acetyl Carnitine-10 μM Acetyl Cysteine, 10 μM Acetyl Carnitine-5 μM Lipoic acid, 10 μM Acetyl Cysteine-5 μM Lipoic acid, the triple cocktail of 10 μM Acetyl Carnitine-10 μM Acetyl Cysteine 5 μM Lipoic acid supplemented in the G-1™ and G-2™ medium and supplemented with HSA.

[2] = tested on: glutathione (GSH); experiment: BSO/MCB probe dosage optimisation and verification of MCB specificity to glutathione; assay type: cell-based, mice
Procedure: Embryos were cultured in groups of 10 in 20 ul drops of media under paraffin oil (Ovoil, Vitrolife) in 6% CO2, 20% O2 74% N2 at 37° C. in a humidified multi gas incubator (Sanyo MCOK-5M[RC], Japan). Half of the embryos were allocated to the control group and the other half to the treatment group. Control group embryos were cultured in G-1™ medium (G-1™ with HSA-Solution™, Vitrolife) […]. Treatment group embryos were likewise cultured with the optimal triple antioxidant dose supplemented in the G-1™ medium (as determined in Example 2).
Immediately after collection, pronucleate control embryos were incubated in G-1™ medium spiked with BSO at doses of 0, 50, 100, 200, 400, 800, 1600 μM for 4 hours at 6% CO2, 20% O2 74% N2 at 37° C. Embryos were rinsed thoroughly in G-1™ with HSA-Solution™ media and placed individually in 2 μl drops of GMOPS with HSA-Solution™ (G-MOPS™ Plus, Vitrolife AB, Sweden) made on glass bottom dishes (Fluorodish, Coherent Scientific, Australia) and overlayed with paraffin oil (Ovoil, Vitrolife) for fluorescence imaging. Optimal dosage was determined by recording the fluorescence at 360±40 nm/460±40 nm excitation/emission wavelengths under a fluorescence microscope (Nikon Eclipse TS100). Results were calculated by subtracting the values of blank (embryos with no BSO exposure) and basal levels of the culture media from the fluorescence recorded. […]

Structure (SMILES): CC(=O)O[C@H](CC(=O)[O-])C[N+](C)(C)C [Acetyl Carnitine, acetyl-L-carnitine]
- Total Mean (average total number of cells in the embryo at day 5) ([1]; 1 μM in G-1 and G-2 medium): 95.85
- Total Mean (average total number of cells in the embryo at day 5) ([1]; 10 μM in G-1 and G-2 medium): 107.83
- Total Mean (average total number of cells in the embryo at day 5) ([1]; 30 μM in G-1 and G-2 medium): 86.93
- Total Mean (average total number of cells in the embryo at day 5) ([1]; 1000 μM in G-1 and G-2 medium): 67.41
- optimal dose (dose that resulted in significantly higher cell numbers) [1]: 10 µM

Structure (SMILES): CC(=O)N[C@@H](CS)C(=O)O [Acetyl Cysteine, N-acetyl-L-cysteine]
- Total Mean (average total number of cells in the embryo at day 5) ([1]; 1 μM in G-1 and G-2 medium): 81.92
- Total Mean (average total number of cells in the embryo at day 5) ([1]; 10 μM in G-1 and G-2 medium): 109.29
- Total Mean (average total number of cells in the embryo at day 5) ([1]; 30 μM in G-1 and G-2 medium): 104.38
- Total Mean (average total number of cells in the embryo at day 5) ([1]; 1000 μM in G-1 and G-2 medium): 95.17
- optimal dose (dose that resulted in significantly higher cell numbers) [1]: 10 µM

Structure (SMILES): CCCCS(=N)(=O)CCC(N)C(=O)O (centres unmarked) [BSO, buthionine sulfoximine]
- MCB fluorescence, BSO treated versus non-BSO treated group ([2]; 200 μM BSO, 80 μM MCB): no significant differences
- MCB fluorescence compared to groups treated with MCB only ([2]; pre-treated with 200 μM BSO, then 10 μM/ml or 40 μmol/ml MCB): significantly reduced fluorescence

Structure (SMILES): O=C(O)CCCCC1CCSS1 (stereo not drawn) [lipoic acid, α-lipoic acid]
- Total Mean (average total number of cells in the embryo at day 5) ([1]; 5 μM in G-1 and G-2 medium): 90.2
- Total Mean (average total number of cells in the embryo at day 5) ([1]; 10 μM in G-1 and G-2 medium): 91.3
- Total Mean (average total number of cells in the embryo at day 5) ([1]; 20 μM in G-1 and G-2 medium): 94
- Total Mean (average total number of cells in the embryo at day 5) ([1]; 80 μM in G-1 and G-2 medium): 34.0
- optimal dose (dose that resulted in significantly higher cell numbers) [1]: 5 µM

From patent US11639494B2, “Culture medium” (Vitrolife Sweden AB, priority 2015, dated 2023)
